“And” between values parts separate entries of the source, which are not always exact repeats. Equal values may be shown once. Inconclusive results and toxic doses are left out.
Tested on: BDF1 mice, B16 melanoma ip, median survival T/C
Assay: NCI In Vivo Anticancer Drug Screen. Data for tumor model B16 Melanoma (intraperitoneal) in B6D2F1 (BDF1) mice
Conditions: endpoint: median survival time, higher = longer survival
Procedure, shortened: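 Compounds were tested in mice carrying transplantable tumors. Survival or tumor size was recorded, and each value is the treated-group measurement (T) divided by that of the vehicle-treated control group (C).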

[1] = dose: 200.0 mg/kg/injection, schedule: Q04DX003 (ip), vehicle: Klucel (hydroxypropylcellulose) (HPC)
[2] = dose: 12.5 mg/kg/injection, schedule: Q01DX009 (ip), vehicle: saline
[3] = dose: 25.0 mg/kg/injection, schedule: Q01DX009 (ip), vehicle: saline
[4] = dose: 50.0 mg/kg/injection, schedule: Q01DX009 (ip), vehicle: saline
[5] = dose: 25.0 mg/kg/injection, schedule: Q01DX009 (ip), vehicle: saline with Tween-80
[6] = dose: 50.0 mg/kg/injection, schedule: Q01DX009 (ip), vehicle: saline with Tween-80
[7] = dose: 100.0 mg/kg/injection, schedule: Q01DX009 (ip), vehicle: saline with Tween-80
[8] = dose: 200.0 mg/kg/injection, schedule: Q01DX009 (ip), vehicle: saline
[9] = dose: 5.0 mg/kg/injection, schedule: Q01DX009 (ip), vehicle: Klucel (hydroxypropylcellulose) (HPC)
[10] = dose: 10.0 mg/kg/injection, schedule: Q01DX009 (ip), vehicle: Klucel (hydroxypropylcellulose) (HPC)
[11] = dose: 25.0 mg/kg/injection, schedule: Q01DX009 (ip), vehicle: Klucel (hydroxypropylcellulose) (HPC)
[12] = dose: 50.0 mg/kg/injection, schedule: Q01DX009 (ip), vehicle: Klucel (hydroxypropylcellulose) (HPC)
[13] = dose: 100.0 mg/kg/injection, schedule: Q01DX009 (ip), vehicle: Klucel (hydroxypropylcellulose) (HPC)
[14] = dose: 200.0 mg/kg/injection, schedule: Q01DX009 (ip), vehicle: Klucel (hydroxypropylcellulose) (HPC)
[15] = dose: 6.25 mg/kg/injection, schedule: Q01DX009 (ip), vehicle: saline with Tween-80
[16] = dose: 12.5 mg/kg/injection, schedule: Q01DX009 (ip), vehicle: saline with Tween-80
[17] = dose: 200.0 mg/kg/injection, schedule: Q01DX009 (ip), vehicle: saline with Tween-80
[18] = dose: 3.12 mg/kg/injection, schedule: Q01DX009 (ip), vehicle: Klucel (hydroxypropylcellulose) (HPC)
[19] = dose: 6.25 mg/kg/injection, schedule: Q01DX009 (ip), vehicle: Klucel (hydroxypropylcellulose) (HPC)
[20] = dose: 12.5 mg/kg/injection, schedule: Q01DX009 (ip), vehicle: Klucel (hydroxypropylcellulose) (HPC)

SMILES: CC1=C(C)C(=O)O[C@@H]([C@](C)(O)[C@]2(O)CC[C@@]3(O)[C@@H]4C[C@H]5O[C@]56CC=CC(=O)[C@]6(C)[C@H]4CC[C@]23C)C1
- T/C (dose: 0.78 mg/kg/injection, schedule: Q01DX009 (ip), vehicle: saline): 102 % of control
- T/C (dose: 1.56 mg/kg/injection, schedule: Q01DX009 (ip), vehicle: saline): 114 % of control

SMILES: Cc1cc(OC(=O)Nc2ccccc2Cl)ccc1[N+](=O)[O-]
- T/C (dose: 100.0 mg/kg/injection, schedule: Q04DX003 (ip), vehicle: Klucel (hydroxypropylcellulose) (HPC)): 96 % of control
- T/C [1]: 96 % of control
- T/C (dose: 400.0 mg/kg/injection, schedule: Q04DX003 (ip), vehicle: Klucel (hydroxypropylcellulose) (HPC)): 93 % of control

SMILES: COCC1OC(OC2C3=C(C(C)C)CCC3(C)/C=C3\C(CCC3(O)COC)C(C)C2O)C(O)C2OC3OC12OC3(C)C1CO1 (stereo not given)
- T/C (dose: 1.5 mg/kg/injection, schedule: Q01DX009 (ip), vehicle: Klucel (hydroxypropylcellulose) (HPC)): 93 % of control
- T/C (dose: 3.0 mg/kg/injection, schedule: Q01DX009 (ip), vehicle: Klucel (hydroxypropylcellulose) (HPC)): 89 % of control
- T/C (dose: 6.0 mg/kg/injection, schedule: Q01DX009 (ip), vehicle: Klucel (hydroxypropylcellulose) (HPC)): 98 % of control
- T/C (dose: 12.0 mg/kg/injection, schedule: Q01DX009 (ip), vehicle: Klucel (hydroxypropylcellulose) (HPC)): 91 % of control
- T/C (dose: 24.0 mg/kg/injection, schedule: Q01DX009 (ip), vehicle: Klucel (hydroxypropylcellulose) (HPC)): 105 % of control

SMILES: NNC(=O)c1ccccc1
- T/C [2]: 105 % of control
- T/C [3]: 97 % of control
- T/C [4]: 88 % of control

SMILES: O=C(CCl)Oc1cccc([N+](=O)[O-])c1
- T/C [5]: 107 % of control
- T/C [6]: 102 % of control
- T/C [7]: 101 % of control

SMILES: O=c1[nH][nH]c(=O)n1O
- T/C (dose: 130.0 mg/kg/injection, schedule: Q01DX009 (ip), vehicle: saline): 112 % of control
- T/C [8]: 103 % of control
- T/C (dose: 300.0 mg/kg/injection, schedule: Q01DX009 (ip), vehicle: saline): 115 % of control

SMILES: NC(=O)c1nn(C2OC(CO)C(O)C2O)c2ncnc(N)c12 (stereo not given)
- T/C (dose: 1.25 mg/kg/injection, schedule: Q01DX009 (ip), vehicle: Klucel (hydroxypropylcellulose) (HPC)): 96 % of control
- T/C (dose: 2.5 mg/kg/injection, schedule: Q01DX009 (ip), vehicle: Klucel (hydroxypropylcellulose) (HPC)): 104 % of control
- T/C [9]: 107 % of control
- T/C [10]: 118 % of control
- T/C [11]: 103 % of control

SMILES: O=S(=O)(OCC(F)(F)F)c1ccccc1
- T/C [12]: 109 % of control
- T/C [13]: 100 % of control
- T/C [14]: 97 % of control

SMILES: O=c1cc2oc3c(O)c(O)ccc3c3c4ccccc4c(=O)c(c1)c23
- T/C [2]: 103 % of control
- T/C [3]: 90 % of control

SMILES: O=C(Nc1ccc([N+](=O)[O-])cc1)Nc1ccc([N+](=O)[O-])c(C(F)(F)F)c1
- T/C [15]: 100 % of control
- T/C [16]: 100 % of control
- T/C [5]: 90 % of control

SMILES: CSCCC1NC(=O)C(C(C)=Nc2ccccc2)=C1O (stereo not given)
- T/C [6]: 100 % of control
- T/C [7]: 96 % of control
- T/C [17]: 95 % of control

SMILES: Cc1cccc(C)c1NC(=S)N(C)C
- T/C [18]: 102 % of control
- T/C (dose: 3.13 mg/kg/injection, schedule: Q01DX009 (ip), vehicle: saline with Tween-80): 110 % of control
- T/C [19]: 100 % of control
- T/C [15]: 115 % of control
- T/C [20]: 91 % of control and 100 % of control
- T/C [16]: 112 % of control

SMILES: O=S1(=O)CC(Cl)(Br)C1 (tested in a mixture with another compound)
- T/C [20]: 105 % of control
- T/C [11]: 108 % of control
- T/C [12]: 108 % of control
- T/C [13]: 93 % of control and 108 % of control

SMILES: CC(O)C(=O)[O][Hg][c]1ccccc1 (stereo not given)
- T/C (dose: 2.5 mg/kg/injection, schedule: Q01DX009 (ip), vehicle: saline with Tween-80): 102 % of control
- T/C (dose: 5.0 mg/kg/injection, schedule: Q01DX009 (ip), vehicle: saline with Tween-80): 102 % of control

SMILES: Cc1cc(NCCN(C(C)C)C(C)C)nc(/N=C(\N)Nc2ccc(Cl)c(C(F)(F)F)c2)n1
- T/C (dose: 2.5 mg/kg/injection, schedule: Q04DX003 (ip), vehicle: Klucel (hydroxypropylcellulose) (HPC)): 101 % of control
- T/C [9]: 92 % of control
- T/C (dose: 5.0 mg/kg/injection, schedule: Q04DX003 (ip), vehicle: Klucel (hydroxypropylcellulose) (HPC)): 93 % of control
- T/C [10]: 91 % of control
- T/C (dose: 10.0 mg/kg/injection, schedule: Q04DX003 (ip), vehicle: Klucel (hydroxypropylcellulose) (HPC)): 102 % of control
- T/C (dose: 20.0 mg/kg/injection, schedule: Q04DX003 (ip), vehicle: Klucel (hydroxypropylcellulose) (HPC)): 111 % of control

SMILES: Nc1ccc(S(=O)(=O)CCCl)cc1
- T/C (dose: 12.5 mg/kg/injection, schedule: Q04DX003 (ip), vehicle: Klucel (hydroxypropylcellulose) (HPC)): 100 % of control
- T/C (dose: 25.0 mg/kg/injection, schedule: Q04DX003 (ip), vehicle: Klucel (hydroxypropylcellulose) (HPC)): 105 % of control
- T/C [1]: 99 % of control

SMILES: C[C@]12CC[C@H](OC(=O)Cc3ccc(N(CCCl)CCCl)cc3)CC1=CC[C@@H]1[C@@H]2CC[C@]2(C)C(=O)CC[C@@H]12
- T/C [7]: 92 % of control
- T/C (dose: 100.0 mg/kg/injection, schedule: Q04DX003 (ip), vehicle: saline with Tween-80): 115 % of control
- T/C [17]: 97 % of control
- T/C (dose: 200.0 mg/kg/injection, schedule: Q04DX003 (ip), vehicle: saline with Tween-80): 105 % of control
- T/C (dose: 400.0 mg/kg/injection, schedule: Q04DX003 (ip), vehicle: saline with Tween-80): 105 % of control

SMILES: CN(C)CCC#N
- T/C [4]: 113 % of control and 122 % of control
- T/C (dose: 100.0 mg/kg/injection, schedule: Q01DX009 (ip), vehicle: saline): 110 % of control and 113 % of control
- T/C [8]: 105 % of control and 122 % of control

SMILES: CN(C)CCSc1cc(O)c2c(c1O)C(=O)c1ccccc1C2=O
- T/C (dose: 50.0 mg/kg/injection, schedule: Q01DX009 (ip), vehicle: water): 94 % of control
- T/C (dose: 100.0 mg/kg/injection, schedule: Q01DX009 (ip), vehicle: water): 102 % of control

SMILES: COc1cc(OC)c(/C=C/c2cc[n+](C)c3ccccc23)c(OC)c1
- T/C (dose: 0.75 mg/kg/injection, schedule: Q01DX009 (ip), vehicle: saline): 105 % of control
- T/C (dose: 1.5 mg/kg/injection, schedule: Q01DX009 (ip), vehicle: saline): 95 % of control
- T/C (dose: 3.0 mg/kg/injection, schedule: Q01DX009 (ip), vehicle: saline): 97 % of control

SMILES: N#CC(Br)C(N)=O (stereo not given)
- T/C (dose: 2.5 mg/kg/injection, schedule: Q01DX009 (ip), vehicle: saline): 93 % of control
- T/C (dose: 5.0 mg/kg/injection, schedule: Q01DX009 (ip), vehicle: saline): 94 % of control

SMILES: Clc1ccc(/C=N\N=C\c2ccc(Cl)c(Cl)c2)cc1Cl
- T/C [13]: 90 % of control
- T/C [14]: 90 % of control

SMILES: COc1ccc(C(N)=O)cc1N=NN(C)C
- T/C [18]: 111 % of control and 113 % of control
- T/C [19]: 109 % of control and 110 % of control
- T/C [20]: 110 % of control and 111 % of control
- T/C [11]: 115 % of control and 123 % of control
- T/C [12]: 117 % of control

SMILES: CC(=O)Nc1c(Cl)c(Cl)c2c(c1Cl)Cc1cc(Br)ccc1-2
- T/C (dose: 1.5 mg/kg/injection, schedule: Q01DX009 (ip), vehicle: saline with Tween-80): 94 % of control
- T/C (dose: 3.0 mg/kg/injection, schedule: Q01DX009 (ip), vehicle: saline with Tween-80): 94 % of control
- T/C (dose: 6.0 mg/kg/injection, schedule: Q01DX009 (ip), vehicle: saline with Tween-80): 100 % of control
- T/C (dose: 12.0 mg/kg/injection, schedule: Q01DX009 (ip), vehicle: saline with Tween-80): 92 % of control
- T/C [16]: 97 % of control

SMILES: O=[N+]([O-])O.O=[N+]([O-])O.[NH-]C1CCCCC1[NH-].[Pt+2] (stereo not given)
- T/C (dose: 0.25 mg/kg/injection, schedule: Q01DX009 (ip), vehicle: dextrose): 110 % of control
- T/C (dose: 0.5 mg/kg/injection, schedule: Q01DX009 (ip), vehicle: dextrose): 120 % of control
- T/C (dose: 1.0 mg/kg/injection, schedule: Q01DX009 (ip), vehicle: dextrose): 160 % of control
- T/C (dose: 2.0 mg/kg/injection, schedule: Q01DX009 (ip), vehicle: dextrose): 183 % of control

SMILES: CCCCOC(=O)c1ccc(NC(=O)Nc2ccccc2)cc1
- T/C [5]: 93 % of control
- T/C [6]: 98 % of control
- T/C [7]: 93 % of control
